Measurements: PubChem BioAssay AID1259407 (Chemical Carcinogenesis Research Information System (CCRIS), 2018)
Active and inactive are the calls of the source. The rule behind the calls is not given here.

Test system: CCRIS mutagenicity, Ames/micronucleus/aberration tests
Experiment: CCRIS mutagenicity studies
[1] = Test System: AMES SALMONELLA TYPHIMURIUM, Strain/Indicator: TA100, Metabolic Activation: RAT, LIVER, S-9, AROCLOR 1254, Method: STANDARD PLATE
[2] = Test System: AMES SALMONELLA TYPHIMURIUM, Strain/Indicator: TA100, Metabolic Activation: NONE, Method: STANDARD PLATE
[3] = Test System: AMES SALMONELLA TYPHIMURIUM, Strain/Indicator: TA1535, Metabolic Activation: NONE, Method: STANDARD PLATE
[4] = Test System: AMES SALMONELLA TYPHIMURIUM, Strain/Indicator: TA98, Metabolic Activation: NONE, Method: STANDARD PLATE
[5] = Test System: AMES SALMONELLA TYPHIMURIUM, Strain/Indicator: TA98, Metabolic Activation: RAT, LIVER, S-9, AROCLOR 1254, Method: STANDARD PLATE
[6] = Test System: AMES SALMONELLA TYPHIMURIUM, Strain/Indicator: TA98, Metabolic Activation: NONE, Method: PREINCUBATION
[7] = Test System: AMES SALMONELLA TYPHIMURIUM, Strain/Indicator: TA100, Metabolic Activation: NONE, Method: PREINCUBATION
[8] = Test System: AMES SALMONELLA TYPHIMURIUM, Strain/Indicator: TA1535, Metabolic Activation: NONE, Method: PREINCUBATION
[9] = Test System: AMES SALMONELLA TYPHIMURIUM, Strain/Indicator: TA1537, Metabolic Activation: NONE, Method: PREINCUBATION
[10] = Test System: Mouse lymphoma, Strain/Indicator: L5178Y (tk+/tk-), Metabolic Activation: Rat, Liver, S-9, Aroclor 1254, Method: Suspension/plate

Question: For `O=C1CC2=C(CCCC2)c2c1c1c(c3c2=CC=C3)C=CC=1`, which mutagenic call [1] is on record?
Answer: inactive; negative

Question: `Oc1cccc2[nH]c3ccccc3c12` was tested. Which mutagenic call (Test System: CHINESE HAMSTER OVARY, Strain/Indicator: CHO-K1-BH4 (HGPRT)/6-THIOGUANINE, Metabolic Activation: RAT, LIVER, S-9, AROCLOR (4%)) did it give?
Answer: active; positive

Question: Which results are given for `c1ccc(Cc2ccccc2OCC2CO2)cc1` (configuration not stated)?
Answer: mutagenic call [2]: active; positive; mutagenic call [3]: active; positive

Question: With `O=[N+]([O-])c1ccc2c3ccccc3c3c([N+](=O)[O-])ccc4ccc1c2c43` as the compound, how does the mutagenic call [4] read?
Answer: active; positive

Question: What about the mutagenic call [5] of the same compound?
Answer: active; positive

Question: Which mutagenic call [6] does the source give for `O=C(O)C(F)(F)C(F)(Cl)C(F)(F)C(F)(Cl)C(F)(F)C(F)(Cl)C(F)(F)Cl` (configuration not stated) here?
Answer: inactive; negative

Question: And the mutagenic call (Test System: AMES SALMONELLA TYPHIMURIUM, Strain/Indicator: TA98, Metabolic Activation: RAT, LIVER, S-9, Method: PREINCUBATION)?
Answer: inactive; negative

Question: And the mutagenic call [7]?
Answer: inactive; negative

Question: What about the mutagenic call (Test System: AMES SALMONELLA TYPHIMURIUM, Strain/Indicator: TA100, Metabolic Activation: RAT, LIVER, S-9, Method: PREINCUBATION) of the same compound?
Answer: inactive; negative

Question: And the mutagenic call [8]?
Answer: inactive; negative

Question: And the mutagenic call (Test System: AMES SALMONELLA TYPHIMURIUM, Strain/Indicator: TA1535, Metabolic Activation: RAT, LIVER, S-9, Method: PREINCUBATION)?
Answer: inactive; negative

Question: And the mutagenic call [9]?
Answer: inactive; negative

Question: And the mutagenic call (Test System: AMES SALMONELLA TYPHIMURIUM, Strain/Indicator: TA1537, Metabolic Activation: RAT, LIVER, S-9, Method: PREINCUBATION)?
Answer: inactive; negative

Question: What about the mutagenic call (Test System: AMES SALMONELLA TYPHIMURIUM, Strain/Indicator: TA1538, Metabolic Activation: NONE, Method: PREINCUBATION) of the same compound?
Answer: inactive; negative

Question: And the mutagenic call (Test System: AMES SALMONELLA TYPHIMURIUM, Strain/Indicator: TA1538, Metabolic Activation: RAT, LIVER, S-9, Method: PREINCUBATION)?
Answer: inactive; negative

Question: And the mutagenic call (Test System: CHINESE HAMSTER OVARY, Strain/Indicator: CHO-K1-BH4 (HGPRT), Metabolic Activation: NONE, Method: STANDARD PLATE)?
Answer: inactive; negative

Question: And the mutagenic call (Test System: CHINESE HAMSTER OVARY, Strain/Indicator: CHO-K1-BH4 (HGPRT), Metabolic Activation: RAT, LIVER, S-9, Method: STANDARD PLATE)?
Answer: inactive; negative

Question: What about the mutagenic call (Test System: UDS RODENT HEPATOCYTES, Strain/Indicator: THY INCORP (NON-S-PHASE), Metabolic Activation: NONE, Method: AUTORADIOGRAPHY) of the same compound?
Answer: inactive; negative

Question: What does the source list for `Cc1cnc2ccc3c(nc(N[C@@H]4O[C@H](C(=O)O)[C@@H](O)[C@H](O)[C@H]4O)n3C)c2n1`?
Answer: mutagenic call [6]: inactive; negative; mutagenic call (Test System: AMES SALMONELLA TYPHIMURIUM, Strain/Indicator: TA98, Metabolic Activation: RAT, LIVER, S-9, AROCLOR 1254, Method: PREINCUBATION): inactive; negative

Question: What does the source list for `N[C@@H](Cc1c[nH]c2ccccc12)C(=O)O`?
Answer: mutagenic call (Test System: AMES SALMONELLA TYPHIMURIUM, Strain/Indicator: TA97, Metabolic Activation: HAMSTER, LIVER, S-9, AROCLOR 1254 (10 OR 30%), Method: PREINCUBATION): inactive; negative; mutagenic call (Test System: AMES SALMONELLA TYPHIMURIUM, Strain/Indicator: TA97, Metabolic Activation: NONE, Method: PREINCUBATION): inactive; negative; mutagenic call (Test System: AMES SALMONELLA TYPHIMURIUM, Strain/Indicator: TA97, Metabolic Activation: RAT, LIVER, S-9, AROCLOR 1254 (10 OR 30%), Method: PREINCUBATION): inactive; negative; mutagenic call (Test System: AMES SALMONELLA TYPHIMURIUM, Strain/Indicator: TA98, Metabolic Activation: HAMSTER, LIVER, S-9, AROCLOR 1254 (10 OR 30%), Method: PREINCUBATION): inactive; negative; mutagenic call [6]: inactive; negative; mutagenic call (Test System: AMES SALMONELLA TYPHIMURIUM, Strain/Indicator: TA98, Metabolic Activation: RAT, LIVER, S-9, AROCLOR 1254 (10 OR 30%), Method: PREINCUBATION): inactive; negative; mutagenic call (Test System: AMES SALMONELLA TYPHIMURIUM, Strain/Indicator: TA100, Metabolic Activation: HAMSTER, LIVER, S-9, AROCLOR 1254 (10 OR 30%), Method: PREINCUBATION): inactive; negative; mutagenic call [7]: inactive; negative; mutagenic call (Test System: AMES SALMONELLA TYPHIMURIUM, Strain/Indicator: TA100, Metabolic Activation: RAT, LIVER, S-9, AROCLOR 1254 (10 OR 30%), Method: PREINCUBATION): inactive; negative; mutagenic call (Test System: AMES SALMONELLA TYPHIMURIUM, Strain/Indicator: TA1535, Metabolic Activation: HAMSTER, LIVER, S-9, AROCLOR 1254 (10 OR 30%), Method: PREINCUBATION): inactive; negative; mutagenic call [8]: inactive; negative; mutagenic call (Test System: AMES SALMONELLA TYPHIMURIUM, Strain/Indicator: TA1535, Metabolic Activation: RAT, LIVER, S-9, AROCLOR 1254 (10 OR 30%), Method: PREINCUBATION): inactive; negative; mutagenic call (Test System: AMES SALMONELLA TYPHIMURIUM, Strain/Indicator: TA1537, Metabolic Activation: HAMSTER, LIVER, S-9, AROCLOR 1254 (30%), Method: PREINCUBATION): inactive; negative; mutagenic call [9]: inactive; negative; mutagenic call (Test System: AMES SALMONELLA TYPHIMURIUM, Strain/Indicator: TA1537, Metabolic Activation: RAT, LIVER, S-9, AROCLOR 1254 (30%), Method: PREINCUBATION): inactive; negative

Question: How did the mutagenic call (Test System: Mouse lymphoma, Strain/Indicator: L5178Y (tk+/tk-), Metabolic Activation: None, Method: Suspension/plate) turn out when `COC(=O)[C@@H]1[C@H]2C[C@H]3c4[nH]c5ccccc5c4CCN3C[C@@H]2CC[C@@H]1O` was run?
Answer: inactive; inconclusive (previous evaluation negative)

Question: And the mutagenic call [10]?
Answer: inactive; inconclusive (previous evaluation negative)

Question: Which mutagenic call [2] does the source give for `COC(=O)[C@@H]1CS[C@@H]2C(Cl)=C(Cl)C(=O)N21` here?
Answer: active; positive

Question: With `CCOc1cccc2cccnc12` as the compound, how does the mutagenic call (Test System: AMES SALMONELLA TYPHIMURIUM, Strain/Indicator: TA100, Metabolic Activation: S-9, Method: PREINCUBATION) read?
Answer: inactive; negative

Question: `C=C1CC/C=C(/C)CC[C@@H]2[C@@H]1CC2(C)C` was tested. Which mutagenic call (Test System: AMES SALMONELLA TYPHIMURIUM, Strain/Indicator: TA98, Metabolic Activation: HAMSTER, LIVER, S-9, AROCLOR 1254, Method: STANDARD PLATE) did it give?
Answer: inactive; negative

Question: And the mutagenic call [4]?
Answer: inactive; negative

Question: And the mutagenic call [5]?
Answer: inactive; negative

Question: What about the mutagenic call (Test System: AMES SALMONELLA TYPHIMURIUM, Strain/Indicator: TA100, Metabolic Activation: HAMSTER, LIVER, S-9, AROCLOR 1254, Method: STANDARD PLATE) of the same compound?
Answer: inactive; negative

Question: And the mutagenic call [2]?
Answer: inactive; negative

Question: What about the mutagenic call [1] of the same compound?
Answer: inactive; negative

Question: And the mutagenic call (Test System: AMES SALMONELLA TYPHIMURIUM, Strain/Indicator: TA102, Metabolic Activation: HAMSTER, LIVER, S-9, AROCLOR 1254, Method: STANDARD PLATE)?
Answer: inactive; negative

Question: And the mutagenic call (Test System: AMES SALMONELLA TYPHIMURIUM, Strain/Indicator: TA102, Metabolic Activation: NONE, Method: STANDARD PLATE)?
Answer: inactive; negative

Question: What about the mutagenic call (Test System: AMES SALMONELLA TYPHIMURIUM, Strain/Indicator: TA102, Metabolic Activation: RAT, LIVER, S-9, AROCLOR 1254, Method: STANDARD PLATE) of the same compound?
Answer: inactive; negative

Question: And the mutagenic call (Test System: AMES SALMONELLA TYPHIMURIUM, Strain/Indicator: TA1535, Metabolic Activation: HAMSTER, LIVER, S-9, AROCLOR 1254, Method: STANDARD PLATE)?
Answer: inactive; negative

Question: What about the mutagenic call [3] of the same compound?
Answer: inactive; negative

Question: And the mutagenic call (Test System: AMES SALMONELLA TYPHIMURIUM, Strain/Indicator: TA1535, Metabolic Activation: RAT, LIVER, S-9, AROCLOR 1254, Method: STANDARD PLATE)?
Answer: inactive; negative

Question: And the mutagenic call (Test System: AMES SALMONELLA TYPHIMURIUM, Strain/Indicator: TA1537, Metabolic Activation: HAMSTER, LIVER, S-9, AROCLOR 1254, Method: STANDARD PLATE)?
Answer: inactive; negative

Question: What about the mutagenic call (Test System: AMES SALMONELLA TYPHIMURIUM, Strain/Indicator: TA1537, Metabolic Activation: NONE, Method: STANDARD PLATE) of the same compound?
Answer: inactive; negative

Question: And the mutagenic call (Test System: AMES SALMONELLA TYPHIMURIUM, Strain/Indicator: TA1537, Metabolic Activation: RAT LIVER, S-9, AROCLOR 1254, Method: STANDARD PLATE)?
Answer: inactive; negative

Question: And the mutagenic call (Test System: MOUSE LYMPHOMA, Strain/Indicator: L5178Y (TK+/TK-), Metabolic Activation: NONE, Method: SUSPENSION/PLATE)?
Answer: inactive; positive; reevaluation of results: negative

Question: What about the mutagenic call [10] of the same compound?
Answer: equivocal
